Source: PubChem BioAssay (NCI)
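The compound was tested at five concentrations on cells cultured in 96-well plates, with a 48-hour exposure period. TGI marks complete inhibition of growth.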

What was measured:
Assay in all cases: growth of human tumour cells (NCI), 48 h
CAKI-1 renal = tested on: CAKI-1 renal
COLO 205 colon = tested on: COLO 205 colon
UO-31 renal = tested on: UO-31 renal
SNB-19 CNS = tested on: SNB-19 CNS
IGROV1 ovarian = tested on: IGROV1 ovarian
MCF7 breast = tested on: MCF7 breast
KM12 colon = tested on: KM12 colon
SNB-75 CNS = tested on: SNB-75 CNS
NCI-H226 lung = tested on: NCI-H226 lung
A498 renal = tested on: A498 renal
HL-60(TB) leukemia = tested on: HL-60(TB) leukemia
RXF 393 renal = tested on: RXF 393 renal
DU-145 prostate = tested on: DU-145 prostate
A549 NSCLC = tested on: A549 NSCLC
SR leukemia = tested on: SR leukemia
HOP-62 NSCLC = tested on: HOP-62 NSCLC
TK-10 renal = tested on: TK-10 renal
MALME-3M melanoma = tested on: MALME-3M melanoma
OVCAR-3 ovarian = tested on: OVCAR-3 ovarian
MDA-N = tested on: MDA-N
SF-295 CNS = tested on: SF-295 CNS
HCC-2998 colon = tested on: HCC-2998 colon
NCI-H23 lung = tested on: NCI-H23 lung
SF-539 CNS = tested on: SF-539 CNS
EKVX NSCLC = tested on: EKVX NSCLC
786-0 renal = tested on: 786-0 renal
K-562 leukemia = tested on: K-562 leukemia
LOX IMVI melanoma = tested on: LOX IMVI melanoma
SW-620 colon = tested on: SW-620 colon
HS 578T breast = tested on: HS 578T breast
HCT-116 colon = tested on: HCT-116 colon
ACHN renal = tested on: ACHN renal
SN12C renal = tested on: SN12C renal
HCT-15 colon = tested on: HCT-15 colon
U251 CNS = tested on: U251 CNS
HT29 colon = tested on: HT29 colon
MOLT-4 leukemia = tested on: MOLT-4 leukemia
HOP-92 NSCLC = tested on: HOP-92 NSCLC
UACC-257 melanoma = tested on: UACC-257 melanoma
NCI-H522 lung = tested on: NCI-H522 lung
SK-MEL-5 melanoma = tested on: SK-MEL-5 melanoma
SK-MEL-28 melanoma = tested on: SK-MEL-28 melanoma
M14 melanoma = tested on: M14 melanoma
MDA-MB-435 = tested on: MDA-MB-435
OVCAR-8 ovarian = tested on: OVCAR-8 ovarian
PC-3 prostate = tested on: PC-3 prostate
NCI-H460 lung = tested on: NCI-H460 lung
SK-OV-3 ovarian = tested on: SK-OV-3 ovarian
CCRF-CEM leukemia = tested on: CCRF-CEM leukemia
T-47D breast = tested on: T-47D breast
UACC-62 melanoma = tested on: UACC-62 melanoma
SK-MEL-2 melanoma = tested on: SK-MEL-2 melanoma
NCI/ADR-RES ovarian = tested on: NCI/ADR-RES ovarian
OVCAR-5 ovarian = tested on: OVCAR-5 ovarian
MDA-MB-231 breast = tested on: MDA-MB-231 breast
SF-268 CNS = tested on: SF-268 CNS
BT-549 breast = tested on: BT-549 breast
RPMI-8226 leukemia = tested on: RPMI-8226 leukemia

## c1ccc([P+](CCN2Cc3ccccc3C2)(c2ccccc2)c2ccccc2)cc1
CAKI-1 renal
  TGI: > 100 µM
COLO 205 colon
  TGI: 3.45 µM
UO-31 renal
  TGI: 34.6 µM
SNB-19 CNS
  TGI: > 100 µM
IGROV1 ovarian
  TGI: 5.87 µM
MCF7 breast
  TGI: 14.4 µM
KM12 colon
  TGI: 16 µM
SNB-75 CNS
  TGI: 8.71 µM
NCI-H226 lung
  TGI: 31.7 µM
A498 renal
  TGI: 55.6 µM
HL-60(TB) leukemia
  TGI: 10.5 µM
RXF 393 renal
  TGI: 22.3 µM
DU-145 prostate
  TGI: 45.6 µM
A549 NSCLC
  TGI: > 100 µM
SR leukemia
  TGI: 52 µM
HOP-62 NSCLC
  TGI: 45.3 µM
TK-10 renal
  TGI: 41.5 µM
MALME-3M melanoma
  TGI: 25.1 µM
OVCAR-3 ovarian
  TGI: 18.1 µM
MDA-N
  TGI: 14.3 µM
SF-295 CNS
  TGI: 83.9 µM
HCC-2998 colon
  TGI: 15.9 µM
NCI-H23 lung
  TGI: > 100 µM
SF-539 CNS
  TGI: 24.4 µM
EKVX NSCLC
  TGI: > 100 µM
786-0 renal
  TGI: 44.4 µM
K-562 leukemia
  TGI: > 100 µM
LOX IMVI melanoma
  TGI: 33 µM
SW-620 colon
  TGI: 25.8 µM
HS 578T breast
  TGI: > 100 µM
HCT-116 colon
  TGI: 20.9 µM
ACHN renal
  TGI: 23.1 µM
SN12C renal
  TGI: 32.8 µM
HCT-15 colon
  TGI: 36.2 µM
U251 CNS
  TGI: 19.5 µM
HT29 colon
  TGI: 22.2 µM
MOLT-4 leukemia
  TGI: > 100 µM
HOP-92 NSCLC
  TGI: 6.41 µM
UACC-257 melanoma
  TGI: 12.4 µM
NCI-H522 lung
  TGI: 12.2 µM
SK-MEL-5 melanoma
  TGI: 11.3 µM
SK-MEL-28 melanoma
  TGI: 9.6 µM
M14 melanoma
  TGI: 23 µM
MDA-MB-435
  TGI: 13.7 µM
OVCAR-8 ovarian
  TGI: 7.95 µM
PC-3 prostate
  TGI: > 100 µM
NCI-H460 lung
  TGI: > 100 µM
SK-OV-3 ovarian
  TGI: 66.2 µM
CCRF-CEM leukemia
  TGI: 40.5 µM
T-47D breast
  TGI: 24.3 µM
UACC-62 melanoma
  TGI: 13.1 µM
SK-MEL-2 melanoma
  TGI: 5.41 µM
NCI/ADR-RES ovarian
  TGI: > 100 µM
OVCAR-5 ovarian
  TGI: 57 µM
MDA-MB-231 breast
  TGI: 16.2 µM
SF-268 CNS
  TGI: 30.1 µM

## CNC(=O)C(C)C1C(=O)/C(=C(O)/C=C\C(C)=C\C(C)C2OC3(C)OC(C=CC34CO4)C2C)C(=O)N1C1CCC(O)C(C)O1 (stereo unspecified)
CAKI-1 renal
  TGI: > 100 µM
COLO 205 colon
  TGI: > 100 µM
BT-549 breast
  TGI: > 100 µM
UO-31 renal
  TGI: > 100 µM
SNB-19 CNS
  TGI: > 100 µM
IGROV1 ovarian
  TGI: > 100 µM
MCF7 breast
  TGI: > 100 µM
KM12 colon
  TGI: > 100 µM
SNB-75 CNS
  TGI: > 100 µM
A498 renal
  TGI: > 100 µM
RXF 393 renal
  TGI: > 100 µM
DU-145 prostate
  TGI: > 100 µM
A549 NSCLC
  TGI: > 100 µM
SR leukemia
  TGI: > 100 µM
HOP-62 NSCLC
  TGI: > 100 µM
TK-10 renal
  TGI: > 100 µM
MALME-3M melanoma
  TGI: > 100 µM
OVCAR-3 ovarian
  TGI: > 100 µM
MDA-N
  TGI: > 100 µM
HCC-2998 colon
  TGI: > 100 µM
SF-539 CNS
  TGI: > 100 µM
EKVX NSCLC
  TGI: > 100 µM
786-0 renal
  TGI: > 100 µM
K-562 leukemia
  TGI: > 100 µM
SW-620 colon
  TGI: > 100 µM
HCT-116 colon
  TGI: > 100 µM
ACHN renal
  TGI: > 100 µM
SN12C renal
  TGI: > 100 µM
HCT-15 colon
  TGI: > 100 µM
U251 CNS
  TGI: > 100 µM
HT29 colon
  TGI: > 100 µM
MOLT-4 leukemia
  TGI: > 100 µM
UACC-257 melanoma
  TGI: > 100 µM
SK-MEL-5 melanoma
  TGI: > 100 µM
SK-MEL-28 melanoma
  TGI: > 100 µM
M14 melanoma
  TGI: > 100 µM
MDA-MB-435
  TGI: > 100 µM
OVCAR-8 ovarian
  TGI: > 100 µM
PC-3 prostate
  TGI: > 100 µM
NCI-H460 lung
  TGI: > 100 µM
SK-OV-3 ovarian
  TGI: > 100 µM
RPMI-8226 leukemia
  TGI: > 100 µM
CCRF-CEM leukemia
  TGI: > 100 µM
T-47D breast
  TGI: > 100 µM
UACC-62 melanoma
  TGI: > 100 µM
SK-MEL-2 melanoma
  TGI: > 100 µM
NCI/ADR-RES ovarian
  TGI: > 100 µM
OVCAR-5 ovarian
  TGI: > 100 µM
MDA-MB-231 breast
  TGI: > 100 µM
SF-268 CNS
  TGI: > 100 µM
